Consider 36 molecules from US20250346599A1, “TRICYCLIC PHTHALAZINONE PARP INHIBITORS AND METHODS OF USE” (Valo Health, Inc., priority 2022, published 2025).

For one data set, the target named is PARP1 enzyme (Homo sapiens (Human), UniProt P09874). In words: PARP Mass Spectroscopy Assay (PARP1 enzymatic assay, nicotinamide detection). Type of data set: biochemical. The note with it: 5 nM PARP1, 5 uM β-NAD, 60 min at RT, NAM by mass spectrometry. From the text: Materials and Reagents: The PARP1 enzyme was purchased from BPS Bioscience (cat #80501). Tris-HCl, pH 8.0 was purchased from Corning (cat #46-031-CM). Magnesium chloride was purchased from Thermo Fisher Scientific (previously Honeywell Fluka, cat #63020-1L). All other assay components, activated DNA (cat #D4522), core histones (cat #SRP6590), β-Nicotinamide adenine dinucleotide (β-NAD—cat #N8285), 3ABA PARP1 small molecule inhibitor (from the PARP1 Enzyme Activity Assay kit, cat #17-10149), Sodium Chloride (NaCl, cat #56546-1L), Triton X-100 (cat #93443), Dithiothreitol (DTT, cat #43816-250 ML) were all purchased from Millipore Sigma.
Assay Buffer: The assay buffer includes the following reagents: 50 mM Tris-HCl pH 8.0, 50 mM NaCl, 10 mM, MgCl2, 0.01% Triton X-100, and 1 mM DTT.
PARP1 enzymatic assays were performed in 384-well plates in a total volume of 20 μL in the assay buffer. For concentration response curves, compounds were serially diluted 3-fold from 2 mM highest concentration […] to generate a 10-point curve, and 125 nL was transferred to the assay plate using the Echo acoustic dispenser for a final concentration range of 26.6 μM to […] in 10 μL reaction. Five microliters of 10 nM PARP1 enzyme and 100 nM core histones (2×) mix were added to the assay plates and pre-incubated for 30 mins at room temperature (RT). The reaction was initiated by the addition of a 5 μL of 10 uM β-NAD plus 0.02 mg/mL activated DNA (2×) mix. The reaction is incubated for 60 min at RT. The final concentration of the PARP1 enzyme and substrate concentrations were 5 nM and 5 uM, respectively. The positive control (high signal) and negative control (low signal) wells had 125 nL of DMSO in place of compounds. After the incubation is complete, the reaction is stopped by the addition of 10 μL of 10 uM of the 3ABA PARP1 inhibitor, incubated for 5 min at RT, and placed in the −80 C freezer for shipment to the Valo Health site in Branford Connecticut where mass spectrometry will be used to directly detect quantities of nicotinamide (NAM).
The percent inhibition of enzyme activity was calculated according to the following equation: […]
The values of Ssample, Shigh, and Slow in the equation refer to the NAM concentration detected in the assay wells, high control wells, and low control wells, respectively. To determine inhibitor IC50 values, % inhibition of the CRCs (concentration response curves) was fitted to the standard single-site four-parameter logistic equation.

Data set [1] concerns the target human MDR1 (P-glycoprotein; P-gp) (Homo sapiens (Human), UniProt P08183). Nature of the data set: bi-directional MDCK-MDR1 permeability assay. It is filed as in vitro ADME. The note with it: for MDCK-MDR1 Papp A→B (10^−6 cm/s): apical to basolateral direction; for MDCK-MDR1 ER: efflux ratio B→A/A→B. From the text: The bi-directional assay containing a Mandin Darby canine kidney (MDCK) cell line transfected with human MDR1 gene (P-glycoprotein; P-gp) designed to overexpress the MDR1 efflux transporter, a major efflux transporter at the blood brain barrier (BBB), uses an established method that measures the rate of flux of a compound across polarized cell monolayers. As well appreciated in the art, the data generated from the MDCK-MDR1 permeability assay may be used to predict in vivo absorption of drugs. The bi-directional MDCK-MDR1 permeability assay can identify and quantify levels of active efflux. Screening compounds in both the apical to basolateral direction (A→B) and basolateral to apical direction (B→A) across the cell monolayer provides a ratio of B→A/A→B (efflux ratio; “ER”). Unlike the Caco-2 assay, the MDCK-MDR1 assay is not subject to potential efflux interference by breast cancer resistance protein (BCRP). […] The data may further be used to predict blood brain barrier (BBB) permeability via calculation from the data of log(permeability-surface area product) (“log PS”), well-understood to be predictive of the in vivo log([brain concentration]/[plasma concentration]).

Sequence of human MDR1 (P-glycoprotein; P-gp) (P08183 whole entry): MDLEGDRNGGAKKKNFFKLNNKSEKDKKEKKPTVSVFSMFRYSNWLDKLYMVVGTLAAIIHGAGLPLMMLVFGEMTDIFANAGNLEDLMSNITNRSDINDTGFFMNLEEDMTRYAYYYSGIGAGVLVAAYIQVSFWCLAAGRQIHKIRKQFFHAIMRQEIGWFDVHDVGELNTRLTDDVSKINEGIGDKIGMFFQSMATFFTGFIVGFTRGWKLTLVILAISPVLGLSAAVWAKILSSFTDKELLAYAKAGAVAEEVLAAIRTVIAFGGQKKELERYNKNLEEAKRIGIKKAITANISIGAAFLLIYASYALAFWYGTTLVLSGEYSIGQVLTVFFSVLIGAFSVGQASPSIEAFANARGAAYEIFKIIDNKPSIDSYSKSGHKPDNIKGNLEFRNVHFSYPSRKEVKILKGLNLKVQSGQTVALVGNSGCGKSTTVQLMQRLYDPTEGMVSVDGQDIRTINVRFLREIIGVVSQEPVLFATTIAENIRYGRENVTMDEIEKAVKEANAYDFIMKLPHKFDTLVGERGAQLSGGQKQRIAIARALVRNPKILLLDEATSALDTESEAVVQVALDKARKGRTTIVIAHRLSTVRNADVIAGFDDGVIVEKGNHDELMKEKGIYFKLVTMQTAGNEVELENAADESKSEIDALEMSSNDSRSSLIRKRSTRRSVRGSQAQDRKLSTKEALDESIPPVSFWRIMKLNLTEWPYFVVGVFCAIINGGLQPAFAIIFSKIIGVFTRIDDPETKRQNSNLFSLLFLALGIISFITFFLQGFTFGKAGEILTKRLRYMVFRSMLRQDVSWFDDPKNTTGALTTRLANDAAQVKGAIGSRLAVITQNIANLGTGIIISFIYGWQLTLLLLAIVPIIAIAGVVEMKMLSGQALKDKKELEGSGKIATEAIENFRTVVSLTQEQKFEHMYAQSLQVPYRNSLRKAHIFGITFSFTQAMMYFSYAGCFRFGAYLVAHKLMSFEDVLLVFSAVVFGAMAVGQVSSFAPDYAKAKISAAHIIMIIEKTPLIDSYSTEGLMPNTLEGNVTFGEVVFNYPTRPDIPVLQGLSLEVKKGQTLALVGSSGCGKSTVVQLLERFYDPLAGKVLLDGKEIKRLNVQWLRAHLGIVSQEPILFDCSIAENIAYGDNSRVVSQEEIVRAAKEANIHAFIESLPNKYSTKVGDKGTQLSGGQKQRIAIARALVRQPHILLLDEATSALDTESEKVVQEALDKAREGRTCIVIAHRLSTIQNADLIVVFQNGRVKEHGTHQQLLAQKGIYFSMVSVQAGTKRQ
Sequence of PARP1 enzyme (P09874 whole entry): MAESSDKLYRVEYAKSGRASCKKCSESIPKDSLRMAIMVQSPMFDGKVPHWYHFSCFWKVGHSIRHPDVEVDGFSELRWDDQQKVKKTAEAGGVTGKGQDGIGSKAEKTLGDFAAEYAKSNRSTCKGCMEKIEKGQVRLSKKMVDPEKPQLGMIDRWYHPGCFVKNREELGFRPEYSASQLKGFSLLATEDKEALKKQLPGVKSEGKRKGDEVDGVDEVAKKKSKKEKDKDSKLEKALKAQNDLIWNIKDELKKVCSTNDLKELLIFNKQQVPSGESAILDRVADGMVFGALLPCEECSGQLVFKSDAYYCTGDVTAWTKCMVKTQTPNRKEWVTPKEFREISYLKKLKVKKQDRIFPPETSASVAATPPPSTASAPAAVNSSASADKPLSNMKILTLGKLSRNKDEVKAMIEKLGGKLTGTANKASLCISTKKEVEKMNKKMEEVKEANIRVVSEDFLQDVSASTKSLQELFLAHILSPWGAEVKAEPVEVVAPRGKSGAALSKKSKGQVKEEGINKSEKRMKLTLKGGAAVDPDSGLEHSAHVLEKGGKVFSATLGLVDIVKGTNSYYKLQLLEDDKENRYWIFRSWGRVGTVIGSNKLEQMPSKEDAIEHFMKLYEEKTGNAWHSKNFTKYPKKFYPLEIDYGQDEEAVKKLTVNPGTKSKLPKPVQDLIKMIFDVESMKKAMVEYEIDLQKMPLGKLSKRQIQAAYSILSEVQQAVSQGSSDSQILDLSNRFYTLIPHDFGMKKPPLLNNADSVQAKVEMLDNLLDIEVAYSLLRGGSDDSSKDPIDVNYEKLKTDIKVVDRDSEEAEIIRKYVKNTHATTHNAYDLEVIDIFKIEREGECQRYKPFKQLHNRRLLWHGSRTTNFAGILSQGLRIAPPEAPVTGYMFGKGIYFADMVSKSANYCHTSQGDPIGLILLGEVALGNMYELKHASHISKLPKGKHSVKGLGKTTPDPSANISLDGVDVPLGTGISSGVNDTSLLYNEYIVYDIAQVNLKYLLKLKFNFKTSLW

As usually defined, the IC50 is the concentration at which inhibition is half-maximal. The molecule `C[C@H]1Nc2cc(F)cc3c(=O)[nH]nc(c23)[C@@H]1c1ccc(C#N)cc1F` [Compound 0194A] yielded a half-inhibitory concentration (IC50) against PARP1 enzyme of 2 nM. In data set [1], the “MDCK-MDR1 Papp A→B (10^−6 cm/s)” value is reported as 6.96 10^−6 cm/s and the “MDCK-MDR1 ER” value amounted to 2.22. In the same order, the values of `O=c1[nH]nc2c3c(cc(F)cc13)N[C@H](C1CC1)[C@H]2c1ccccc1Cl` [Compound 0207B, (11R,12R)-12-(2-chlorophenyl)-11-cyclopropyl-7-fluoro-2,3,10-triazatricyclo[7.3.1.0^{5,13}]trideca-1,5(13),6,8-tetraen-4-one] are 6 nM, 14.4 10^−6 cm/s and 0.532. In the same order, the values of `O=c1[nH]nc2c3c(cc(F)cc13)N[C@H](C1CCOCC1)[C@H]2c1ccccc1Cl` [Compound 0210B, (11R,12R)-12-(2-chlorophenyl)-7-fluoro-11-(oxan-4-yl)-2,3,10-triazatricyclo[7.3.1.0^{5,13}]trideca-1,5(13),6,8-tetraen-4-one] are 142 nM, 2.27 10^−6 cm/s and 9.91. On PARP1 enzyme, `N#Cc1ccc([C@H]2CNc3cc(F)cc4c(=O)[nH]nc2c34)c(F)c1` [Compound 0187B] yielded an IC50 of 41 nM. In data set [1], the “MDCK-MDR1 Papp A→B (10^−6 cm/s)” value is 8.56 10^−6 cm/s and the “MDCK-MDR1 ER” value worked out at 1.67. On to `CC[C@@H]1Nc2cc(F)cc3c(=O)[nH]nc(c23)[C@H]1c1ncnn1C` [Compound 0202B], for which, in data set [1], the “MDCK-MDR1 Papp A→B (10^−6 cm/s)” value was 0.77 10^−6 cm/s and the “MDCK-MDR1 ER” value is recorded as 28.5.

Turning to `C[C@@H]1Nc2cc(F)cc3c(=O)[nH]nc(c23)[C@H]1c1ncnn1C` [Compound 0201B], in data set [1], the “MDCK-MDR1 Papp A→B (10^−6 cm/s)” value is 0.567 10^−6 cm/s and the “MDCK-MDR1 ER” value worked out at 24.7. For `Cn1ncnc1[C@@H]1c2n[nH]c(=O)c3cc(F)cc(c23)N[C@H]1C1CC1` [Compound 0203B] the same measures were 0.568 10^−6 cm/s and 21.7. On PARP1 enzyme, `CN1CCC([C@H]2Nc3cc(F)cc4c(=O)[nH]nc(c34)[C@@H]2c2ccccc2Cl)CC1` [Compound 0116A, (8R,9R)-9-(2-chlorophenyl)-5-fluoro-8-(1-methylpiperidin-4-yl)-2,7,8,9-tetrahydro-3H-pyrido[4,3,2-de]phthalazin-3-one] yielded an IC50 of 5280 nM.

For the molecule `Cn1ncnc1[C@H]1c2n[nH]c(=O)c3cc(F)cc(c23)N[C@@H]1C1CCC(F)(F)CC1` [Compound 0215A], in data set [1], the “MDCK-MDR1 Papp A→B (10^−6 cm/s)” value is recorded as 0.373 10^−6 cm/s and the “MDCK-MDR1 ER” value is 33.3.

In the case of `N#Cc1ccc([C@H]2CNc3cc(F)cc4c(=O)[nH]nc2c34)cc1F` [Compound 0186B], at PARP1 enzyme, it took 41 nM to reach half-maximal inhibition (IC50). In other words, the double-digit nanomolar range. For the molecule `O=c1[nH]nc2c3c(cc(F)cc13)N[C@@H](C1(F)CC1)[C@@H]2c1ccc(Cl)cc1F` [Compound 0255A], the IC50 on PARP1 enzyme was found to be 4 nM. In the case of `CC(=O)N1CCC([C@@H]2Nc3cc(F)cc4c(=O)[nH]nc(c34)[C@H]2c2ncnn2C)CC1` [Compound 0218B], in data set [1], the “MDCK-MDR1 Papp A→B (10^−6 cm/s)” value is 0.335 10^−6 cm/s and the “MDCK-MDR1 ER” value turned out to be 3.98. At PARP1 enzyme, `O=c1[nH]nc2c3c(cc(F)cc13)NC(C1CCOC1)C2c1ccccc1Cl` (stereo not shown) [Compound 0121-4] registered an IC50 of 39 nM. `C[C@@H]1Nc2cc(F)cc3c(=O)[nH]nc(c23)[C@H]1c1ccc(C#N)cc1F` [Compound 0194B] yielded an IC50 against PARP1 enzyme of 35 nM.

`O=c1[nH]nc2c3c(cc(F)cc13)N[C@@H](C1CCN(C3CCC(F)(F)CC3)CC1)[C@@H]2c1ccc(F)cc1F` [Compound 0271A] had an IC50 on PARP1 enzyme of 936 nM. Still for that read-out and setting: for `O=c1[nH]nc2c3c(cc(F)cc13)N[C@H](CF)[C@H]2c1ccc(Cl)cc1F` [Compound 0252B] the value was 8 nM. For the molecule `O=c1[nH]nc2c3c(cc(F)cc13)NC(C1(F)CC1)[C@H]2c1ccc(Cl)cc1F` (stereo partly shown) [Compound 0255B], on PARP1 enzyme, the midpoint of inhibition, the IC50, lay at 103 nM. The same measure, in the same setting: the same measure for `O=c1[nH]nc2c3c(cc(F)cc13)N[C@H]([C@@H]1CCOC1)[C@H]2c1ccccc1Cl` [Compound 0121B]: 236 nM; for `O=c1[nH]nc2c3c(cc(F)cc13)NC(C1CCNC1)C2c1ccccc1Cl` (stereo not shown) [Compound 0171, 12-(2-chlorophenyl)-7-fluoro-11-(pyrrolidin-3-yl)-2,3,10-triazatricyclo[7.3.1.0^{5,13}]trideca-1,5(13),6,8-tetraen-4-one]: 91 nM. `O=c1[nH]nc2c3c(cc(F)cc13)NC[C@@H]2c1ccc(Cl)c(F)c1` [Compound 0188B, (S)-9-(4-chloro-3-fluorophenyl)-5-fluoro-2,7,8,9-tetrahydro-3H-pyrido[4,3,2-de]phthalazin-3-one] gave an IC50 against PARP1 enzyme of 99 nM. The IC50 values of the last two molecules are within 1.5-fold of each other. As for `O=c1[nH]nc2c3c(cc(F)cc13)N[C@@H]([C@@H]1CCOC1)[C@@H]2c1ccc(F)cc1F` [Compound 0115D], in data set [1], the “MDCK-MDR1 Papp A→B (10^−6 cm/s)” value was 4.94 10^−6 cm/s and the “MDCK-MDR1 ER” value is 4.28. On PARP1 enzyme, `Cn1ncnc1[C@@H]1c2n[nH]c(=O)c3cc(F)cc(c23)N[C@H]1C1CCN(C2CCC(F)(F)CC2)CC1` [Compound 0266A] showed an IC50 of 1680 nM. On the same count and under the same terms, for `O=c1[nH]nc2c3c(cc(F)cc13)N[C@H](C1CCC(F)(F)CC1)[C@H]2c1ccccc1Cl` [Compound 0213A] the value was 352 nM; for `O=c1[nH]nc2c3c(cc(F)cc13)N[C@@H](C1CCN(C3CCC(F)(F)CC3)CC1)[C@@H]2c1ccccc1Cl` [Compound 0261B], 301 nM; for `O=c1[nH]nc2c3c(cc(F)cc13)NC(C1(F)CC1)C2c1ccc(Cl)cc1F` (stereo not shown) [Compound 0255-6], 4 nM. Molecule `CN1CCC[C@H]([C@H]2CNc3cc(F)cc4c(=O)[nH]nc2c34)C1` [Compound 0191B] gave an IC50 at PARP1 enzyme of 37 nM. Against the preceding molecule, the IC50 is about 9.2-fold higher. Still for that read-out and setting: for `CC(=O)N1CCC([C@H]2Nc3cc(F)cc4c(=O)[nH]nc(c34)[C@@H]2c2ccccc2Cl)CC1` [Compound 0223A] the value was 1200 nM. For the molecule `C[C@@H]1Nc2cc(F)cc3c(=O)[nH]nc(c23)[C@H]1[C@H]1CCCN(C)C1` [Compound 0198C], at PARP1 enzyme, it took 45 nM to reach half-maximal inhibition (IC50). As for `O=c1[nH]nc2c3c(cc(F)cc13)N[C@@H](C1CCN(C3CCC(F)(F)CC3)CC1)[C@@H]2c1ccc(Cl)cc1F` [Compound 0256A], in data set [1], the “MDCK-MDR1 Papp A→B (10^−6 cm/s)” value is recorded as 5.76 10^−6 cm/s and the “MDCK-MDR1 ER” value was 3.37. `O=c1[nH]nc2c3c(cc(F)cc13)N[C@H](C1CCN(C3CCC(F)(F)CC3)CC1)[C@H]2c1ccccc1Cl` [Compound 0261A] came in with an IC50 on PARP1 enzyme of 896 nM. On to `N#Cc1ccc([C@H]2c3n[nH]c(=O)c4cc(F)cc(c34)N[C@@H]2C2CCN(C3CCC(F)(F)CC3)CC2)c(F)c1` [Compound 0276B], for which, at PARP1 enzyme, the IC50 stood at 30 nM. In turn, `O=c1[nH]nc2c3c(cc(F)cc13)NC[C@H]2c1ccc(F)cc1F` [Compound 0114A, (R)-9-(2,4-difluorophenyl)-5-fluoro-2,7,8,9-tetrahydro-3H-pyrido[4,3,2-de]phthalazin-3-one] showed an IC50 against PARP1 enzyme of 270 nM. In the case of `O=c1[nH]nc2c3c(cc(F)cc13)NC(C1(F)CC1)[C@H]2c1ccccc1Cl` (stereo partly shown) [Compound 0260B], the IC50 against PARP1 enzyme is 106 nM. On the same count and under the same terms, for `O=c1[nH]nc2c3c(cc(F)cc13)NC[C@H]2c1ccc(Cl)cc1F` [Compound 0189A] the value was 79 nM.

In the case of `Cn1ncnc1[C@H]1CNc2cc(F)cc3c(=O)[nH]nc1c23` [Compound 0200B], in data set [1], the “MDCK-MDR1 Papp A→B (10^−6 cm/s)” value is 1.2 10^−6 cm/s and the “MDCK-MDR1 ER” value came out at 12.3.

In turn, `CN1CCC[C@@H]([C@H]2CNc3cc(F)cc4c(=O)[nH]nc2c34)C1` [Compound 0191D] returned an IC50 on PARP1 enzyme of 35 nM.
